Values of other authors, collected in patent US9682924B2, “Crystalline form of VSN16” (CANBEX THERAPEUTICS LIMITED, priority 2013, dated 2017).
One block for each compound: values may come before it.

Key:
mesenteric arteries = settings: for antagonism of VSN16 vasorelaxation: antagonist against VSN16-induced vasorelaxation, rimonabant and AM 251 at high concentrations
spasticity in CREAE mice = settings: without producing significant adverse CNS effects
CB1 receptors = target: T1, CB1 receptors (Rattus norvegicus, UniProt P20272); settings: rat cerebellum
T1 construct: from tissue; host or cells: rat cerebellum
T1 sequence (P20272 whole entry): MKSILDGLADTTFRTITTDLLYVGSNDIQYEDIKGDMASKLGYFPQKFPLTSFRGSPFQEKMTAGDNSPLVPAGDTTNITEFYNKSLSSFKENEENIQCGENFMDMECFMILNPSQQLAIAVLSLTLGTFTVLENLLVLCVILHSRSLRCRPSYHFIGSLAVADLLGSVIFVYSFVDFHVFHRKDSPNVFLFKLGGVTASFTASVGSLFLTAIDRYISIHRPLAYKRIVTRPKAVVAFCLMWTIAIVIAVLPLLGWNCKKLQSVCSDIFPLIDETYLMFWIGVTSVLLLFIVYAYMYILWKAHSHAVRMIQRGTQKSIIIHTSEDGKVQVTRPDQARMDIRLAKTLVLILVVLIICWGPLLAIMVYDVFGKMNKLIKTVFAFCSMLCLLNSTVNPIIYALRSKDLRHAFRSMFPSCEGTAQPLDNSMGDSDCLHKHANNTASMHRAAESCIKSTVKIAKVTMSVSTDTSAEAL

SMILES: Cc1c(C(=O)NN2CCCCC2)nn(-c2ccc(Cl)cc2Cl)c1-c1ccc(I)cc1 [AM 251]
antagonism of VSN16 vasorelaxation (mesenteric arteries): antagonized

SMILES: C=C(C)[C@@H]1CCC(C)=C[C@H]1c1c(OC)cc(C)cc1OC [O-1918]
antagonism of VSN16 vasorelaxation (mesenteric arteries): antagonized

effect on [3H]CP55,940 binding to CB1 receptors (CB1 receptors): does not affect
SMILES: CC(CO)NC(=O)c1cccc(/C=C\CCCC(=O)N(C)C)c1 (centres unmarked) [VSN16]
effect on spasticity (spasticity in CREAE mice): marked effect on spasticity | blood pressure (conscious rats): transiently increases blood pressure | mesenteric vascular conductance (conscious rats): longer-lasting increase in mesenteric vascular conductance | relaxation of mesenteric arteries (mesenteric arteries; endothelium-dependent): relaxes mesenteric arteries in an endothelium-dependent manner

SMILES: Cc1c(C(=O)NN2CCCCC2)nn(-c2ccc(Cl)cc2Cl)c1-c1ccc(Cl)cc1 [rimonabant]
antagonism of VSN16 vasorelaxation (mesenteric arteries): antagonized
